# Measured values taken from PMC5267519, “Evaluation of a Novel Renewable Hepatic Cell Model for Prediction of Clinical CYP3A4 Induction Using a Correlation-Based Relative Induction Score Approach” (Drug Metabolism and Disposition, 2017).
# Values joined by “and” are separate entries in the source; they are usually repeats but may differ in a detail not shown here. Equal values may be shown once. Read-outs that look alike come from different tables or passages of the source.
# Columns and labels:
# CYP3A4 [1] = details: for RIS Based on Enzyme Activity: RIS = (Emax × Cmax,ub)/(EC50 + Cmax,ub); for RIS values based on enzyme activity (range stated for group of compounds): range over named compounds and three lots
# CYP3A4 [2] = system: CYP3A4
# Source text: The resulting fitting equation was used to calculate predicted in vivo AUC change for each compound. […] Prediction accuracy using HepatoCells was also compared with prediction accuracy using primary human hepatocytes.
# CYP3A4 mRNA [3] = assay: Concentration-dependent CYP3A4 mRNA induction in HepatoCells; details: for Emax / EC50: CYP3A4 mRNA fold increase, NI = no induction observed at tested concentration; for Emax: 3 consecutive days treatment, quinidine: only observed maximum fold induction; for RIS Based on mRNA: RIS = (Emax × Cmax,ub)/(EC50 + Cmax,ub); for EC50: human, nominal concentrations; for RIS Based on mRNA, Mean: mean of lots 2B, 3A, 3B; for RIS values based on CYP3A4 mRNA level (range stated for group of compounds): range over named compounds and three lots
# Method: (§1) Cryopreserved HepatoCells were thawed quickly in a 37°C water bath and transferred to Corning Culture Medium for HepatoCells supplemented with 10% fetal bovine serum and Pen/Strep (plating medium). After the cryo-freezing media was removed by centrifugation at 150g for 10 minutes, the cell pellet was resuspended in plating media and cell count was performed with trypan blue. Cells were then seeded in a Corning BioCoat Collagen I–coated plate (500,000 cells/well in 24-well plate or 80,000 cells/well in 96-well plate), and plates were incubated in a 37°C incubator with 5% CO2. […] Cells were then returned to the incubator for overnight culture.
# (§2) Stock solutions of test compounds were prepared by dissolving each compound in DMSO and serially diluting the solutions in DMSO. Final working solutions were freshly prepared daily by diluting the 1000× stock solutions in culture medium. Three lots of HepatoCells culture were treated with eight concentrations of test compounds. Both enzymatic activity (testosterone 6β hydroxylase activity) and mRNA expression were measured as endpoints using LC-MS/MS and real-time reverse-transcription polymerase chain reaction, respectively.
# (§3) Only curve fitting with correlation coefficient (R^2) > 0.85 is accepted. At high concentrations for some compounds, if toxicity or insolubility becomes obvious, such data are excluded from curve fitting.
# CYP3A4 [4] = details: cited from earlier work
# CYP3A4 mRNA [5] = details: for RIS Based on mRNA, Mean: human
# Method: as §1, §2, §3
# CYP3A4 [6] = details: hepatocytes; cited from earlier work
# [7] = Lot 2B HepatoCells, RIS calibration curve
# [8] = Lot 3A HepatoCells, RIS calibration curve
# [9] = Lot 3B HepatoCells, RIS calibration curve
# [10] = clinical DDI, decrease in AUC of victim drug (midazolam or nonmidazolam), ref Zhang et al., 2014
# [11] = three lots of HepatoCells, eight concentrations
Structure (SMILES),RIS Based on Enzyme Activity (CYP3A4 [1]; Lot 2B),RIS Based on Enzyme Activity (CYP3A4 [1]; Lot 3A),RIS Based on Enzyme Activity (CYP3A4 [1]; Lot 3B),"RIS Based on Enzyme Activity, Mean (CYP3A4 [1]; mean of lots 2B, 3A, 3B)",RIS values based on enzyme activity (range stated for group of compounds) (CYP3A4 [1]),Predicted % AUC Change Based on Activity (CYP3A4 [2]; [7]) [%],Predicted % AUC Change Based on mRNA (CYP3A4 [2]; [7]) [%],Predicted % AUC Change Based on Activity (CYP3A4 [2]; [8]) [%],Predicted % AUC Change Based on mRNA (CYP3A4 [2]; [8]) [%],Predicted % AUC Change Based on Activity (CYP3A4 [2]; [9]) [%],Predicted % AUC Change Based on mRNA (CYP3A4 [2]; [9]) [%],Emax (CYP3A4 mRNA [3]; Lot 2B HepatoCells) [Fold],RIS Based on mRNA (CYP3A4 mRNA [3]; Lot 2B),Emax (CYP3A4 mRNA [3]; Lot 3A HepatoCells) [Fold],RIS Based on mRNA (CYP3A4 mRNA [3]; Lot 3A),Emax (CYP3A4 mRNA [3]; Lot 3B HepatoCells) [Fold],RIS Based on mRNA (CYP3A4 mRNA [3]; Lot 3B),"EC50 (CYP3A4 mRNA [3]; EC50, Lot 2B HepatoCells) [µM]","EC50 (CYP3A4 mRNA [3]; EC50, Lot 3A HepatoCells) [µM]","EC50 (CYP3A4 mRNA [3]; EC50, Lot 3B HepatoCells) [µM]",further results
O=C1NC(=O)C(c2ccccc2)(c2ccccc2)N1 [Phenytoin],1.8,2.3,2.4,2.2,0.7–24,96,98,96,98,97,95,23,7.5,38,12.1,35,8.5,15,16,23,"Predicted AUC change using HepatoCells (range of lots) (CYP3A4 [2]; three lots, mRNA or activity basis not given): 95–98%; RIS Based on mRNA, Mean (CYP3A4 mRNA [3]): 9.4; RIS values based on CYP3A4 mRNA level (range stated for group of compounds) (CYP3A4 mRNA [3]): 0.8–25; Observed % AUC Change (CYP3A4 [4]; [10]): 94%"
CN(C/C=C/C#CC(C)(C)C)Cc1cccc2ccccc12 [Terbinafine],–,–,–,–,–,–,–,–,–,–,–,20,–,24,–,21,–,–,–,–,"RIS Based on Enzyme Activity, Mean (CYP3A4 [1]; human): 0.2; RIS Based on mRNA, Mean (CYP3A4 mRNA [5]): 0.19; Predicted % AUC Change Based on Activity (CYP3A4 [2]): 29% and 15%; Predicted AUC change using enzyme activity data (range of lots) (CYP3A4 [2]): 15–29%; Predicted AUC change using mRNA data (range of lots) (CYP3A4 [2]): 8–19%; Observed % AUC Change (CYP3A4 [4]; human, in vivo): 25%"
CN(Cc1cnc2nc(N)nc(N)c2n1)c1ccc(C(=O)N[C@@H](CCC(=O)O)C(=O)O)cc1 [Methotrexate],–,–,–,–,–,–,–,–,–,–,–,–,–,–,–,–,–,–,–,–,CYP3A4 enzyme activity induction response (in words) (CYP3A4 [1]; [11]): no induction response; CYP3A4 mRNA expression induction response (in words) (CYP3A4 mRNA [3]; [11]): no induction response
NC(=O)N1c2ccccc2C=Cc2ccccc21 [Carbamazepine],0.67,0.8,0.9,0.8,0.7–24,92,86,92,87,87,95,16,0.76,10,0.77,14,1.3,108,65,53,"RIS Based on mRNA, Mean (CYP3A4 mRNA [3]): 0.9; RIS values based on CYP3A4 mRNA level (range stated for group of compounds) (CYP3A4 mRNA [3]): 0.8–25; Observed % AUC Change (CYP3A4 [4]; [10]): 94%"
Clc1ccccc1C(c1ccccc1)(c1ccccc1)n1ccnc1 [Clotrimazole],–,–,–,–,–,–,–,–,–,–,–,–,–,–,–,–,–,–,–,–,"Emax, CYP3A4 enzyme activity (CYP3A4 [6]): 3.1- to 3.3 fold; CYP3A4 enzyme activity induction response (in words) (CYP3A4 [1]): did not increase; CYP3A4 mRNA expression induction response (in words) (CYP3A4 mRNA [5]): induced an increase; RIS Based on mRNA, Mean (CYP3A4 mRNA [5]): 0.0044; Predicted % AUC Change Based on Activity (CYP3A4 [2]): 0%; Predicted % AUC Change Based on mRNA (CYP3A4 [2]): 0.00%; Observed % AUC Change (CYP3A4 [4]; human, in vivo): 9.7%"
C=C[C@H]1C[N@@]2CC[C@H]1C[C@@H]2[C@@H](O)c1ccnc2ccc(OC)cc12 [Quinidine],–,–,–,–,–,–,–,–,–,–,–,–,–,–,–,–,–,–,–,–,CYP3A4 enzyme activity induction over solvent vehicle control (CYP3A4 [1]): one- to twofold increase; CYP3A4 enzyme activity induction response (in words) (CYP3A4 [1]): did not cause a concentration-dependent increase; CYP3A4 mRNA induction over solvent vehicle control (CYP3A4 mRNA [5]): one- to twofold increase
